Results taken from US11078221B2, “Phosphorodiamidates and other phosphorus derivatives of fingolimod and related S1P receptor modulators” (UNIVERSITY COLLEGE CARDIFF CONSULTANTS LTD, priority 2017, dated 2021).

Columns and labels:
[1] = system: NPC1 and −2; conditions: mice, clinically relevant doses, cited from earlier work
[2] = system: human NPC1 mutant fibroblasts; conditions: cited from earlier work
[3] = target: T1, Carboxypeptidase Y (Saccharomyces cerevisiae, UniProt P00729); experiment: Carboxypeptidase Y experiment (31P NMR); assay type: in vitro ADME
T1 construct: purchased Aldrich
T1 sequence (P00729 112-532): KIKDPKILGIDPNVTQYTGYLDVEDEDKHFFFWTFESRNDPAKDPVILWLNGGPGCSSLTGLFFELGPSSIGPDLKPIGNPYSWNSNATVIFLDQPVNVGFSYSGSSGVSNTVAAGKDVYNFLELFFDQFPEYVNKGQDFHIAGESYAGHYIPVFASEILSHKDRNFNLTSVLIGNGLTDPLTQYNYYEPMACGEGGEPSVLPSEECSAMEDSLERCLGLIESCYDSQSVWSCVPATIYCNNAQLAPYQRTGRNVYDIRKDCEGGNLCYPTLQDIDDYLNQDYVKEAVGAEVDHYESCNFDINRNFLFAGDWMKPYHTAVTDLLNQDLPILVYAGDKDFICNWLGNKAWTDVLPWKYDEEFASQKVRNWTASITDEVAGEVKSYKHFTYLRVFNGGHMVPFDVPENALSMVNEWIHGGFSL
Description: Blank in acetone d6 alone (No trizma): 1-2 mg of pentyl (2S)-2-[({2-amino-3-hydroxy-2-[2-(4-octylphenethyl]propoxy}(4-methoxyphenoxy) phosphoryl)amino]propanoate is dissolved in 150 μL of acetone d6 and the solution transferred into an NMR tube. The ^31P spectrum is recorded (16 scans are sufficient).
The sample in the NMR tube is diluted with 100 μL of Trizma buffer (pH=7.6). 0.1 mg of Carboxypeptidase Y (Aldrich) is then dissolved in 150 μL of Trizma buffer and the resulting solution is added to the NMR tube. ^31P NMR spectra are then recorded (512 scans, 600 sec delay, 20 experiments.) FIG. 1

[4] = Human serum stability (31P NMR); assay type: in vitro ADME
[5] = B95a cell lysate experiment (31P NMR); assay type: in vitro ADME; conditions: marmoset (cotton-top tamarin), B95a cell lysate; pH 7.6, 37 Celsius
Description: (§1) 4 mg of pentyl (2S)-2-[({2-amino-3-hydroxy-2-[2-(4-octylpheny)ethyl]propoxy}(4-methoxyphenoxy)phosphoryl)amino]propanoate are dissolved in a mixture of 150 μL of acetone d6 and 100 μL of trizma buffer (pH=7.6). The solution is transferred into an NMR tube. The ^31P spectrum is recorded (64 scans).
(§2) To the blank sample in the NMR tube 150 μL of B95a cell lysate (6.000.000 cell/m L) are added and then ^31P spectra are recorded at 37 Celsius (512 scans, 600 sec delay, 20 experiments).

[6] = system: B95a cell lysate; experiment: B95a cell lysate experiment (31P NMR); assay type: in vitro ADME; conditions: pH 7.6, 37 Celsius, FIG. 4
Description: as §1, §2

Row | Structure (SMILES) | cholesterol ([1]; SphK2-dependent) | expression of NPC1 and −2 ([1]; brain and liver) | accumulation of cholesterol and glycosphingolipids [2] | expression of NPC1 and −2 [2] | activation of the prodrug by the esterase ([3]; acetone d6 / Trizma buffer, Carboxypeptidase Y, FIG. 1) | half-life ([3]; yeast (Saccharomyces cerevisiae), Carboxypeptidase Y in Trizma buffer / acetone d6, acetone d6 / Trizma buffer pH 7.6, read-out: half-life in the presence of Carboxypeptidase Y) [h] | stability in human serum ([4]; DMSO d6 / Trizma buffer pH 7.6) | time over which the prodrug is stable in human serum ([4]; FIG. 3) | half-life at 10 mg/mL [5] [h] | processing in B95a cell lysate [6]
1 | CCCCCCCCc1ccc(CCC(N)(CO)CO)cc1 [FTY720, Fingolimod] | decreased cholesterol | increased expression of NPC1 and −2 in brain and liver | significantly reduced the accumulation of cholesterol and glycosphingolipids | greatly increased expression of NPC1 and −2 |  |  |  |  |  | 
2 | CCCCCCCCc1ccc(CCC(N)(CO)COP(=O)(N[C@@H](C)C(=O)OCCCCC)Oc2ccc(OC)cc2)cc1 (stereo partly drawn) [pentyl (2S)-2-[({2-amino-3-hydroxy-2-[2-(4-octylphenyl)ethyl]propoxy}(4-methoxyphenoxy)phosphoryl)amino]propanoate] |  |  |  |  | rapidly activated by the esterase | 35.1 | stable in human serum | at least 665 minutes | 11.1 | processed to release the active monophosphorylated analogue
